From PubChem BioAssay (NCI)
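Tested at 5 concentrations; 48 h exposure; 96-well plates; endpoints linearly interpolated, else capped at highest concentration. At the TGI there is no net growth.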

Key:
Assay in all cases: NCI anticancer screen, dose series, 48 h
KM12 colon = system: KM12 colon
SF-295 CNS = system: SF-295 CNS
HCC-2998 colon = system: HCC-2998 colon
CAKI-1 renal = system: CAKI-1 renal
DU-145 prostate = system: DU-145 prostate
NCI-H522 lung = system: NCI-H522 lung
OVCAR-5 ovarian = system: OVCAR-5 ovarian
SK-MEL-2 melanoma = system: SK-MEL-2 melanoma
UACC-257 melanoma = system: UACC-257 melanoma
A498 renal = system: A498 renal
HS 578T breast = system: HS 578T breast
PC-3 prostate = system: PC-3 prostate
UACC-62 melanoma = system: UACC-62 melanoma
SF-268 CNS = system: SF-268 CNS
SR leukemia = system: SR leukemia
EKVX NSCLC = system: EKVX NSCLC
RPMI-8226 leukemia = system: RPMI-8226 leukemia
HL-60(TB) leukemia = system: HL-60(TB) leukemia
SK-MEL-5 melanoma = system: SK-MEL-5 melanoma
MDA-MB-231 breast = system: MDA-MB-231 breast
SK-OV-3 ovarian = system: SK-OV-3 ovarian
SK-MEL-28 melanoma = system: SK-MEL-28 melanoma
SN12C renal = system: SN12C renal
LOX IMVI melanoma = system: LOX IMVI melanoma
T-47D breast = system: T-47D breast
MCF7 breast = system: MCF7 breast
A549 NSCLC = system: A549 NSCLC
OVCAR-4 ovarian = system: OVCAR-4 ovarian
SW-620 colon = system: SW-620 colon
OVCAR-3 ovarian = system: OVCAR-3 ovarian
HCT-15 colon = system: HCT-15 colon
CCRF-CEM leukemia = system: CCRF-CEM leukemia
HCT-116 colon = system: HCT-116 colon
HT29 colon = system: HT29 colon
OVCAR-8 ovarian = system: OVCAR-8 ovarian
TK-10 renal = system: TK-10 renal
SF-539 CNS = system: SF-539 CNS
ACHN renal = system: ACHN renal
NCI-H226 lung = system: NCI-H226 lung
SNB-19 CNS = system: SNB-19 CNS
MOLT-4 leukemia = system: MOLT-4 leukemia
U251 CNS = system: U251 CNS
UO-31 renal = system: UO-31 renal
SNB-75 CNS = system: SNB-75 CNS
NCI-H460 lung = system: NCI-H460 lung
MDA-MB-435 = system: MDA-MB-435
MALME-3M melanoma = system: MALME-3M melanoma
HOP-62 NSCLC = system: HOP-62 NSCLC
786-0 renal = system: 786-0 renal
NCI-H23 lung = system: NCI-H23 lung
HOP-92 NSCLC = system: HOP-92 NSCLC
NCI/ADR-RES ovarian = system: NCI/ADR-RES ovarian
IGROV1 ovarian = system: IGROV1 ovarian
RXF 393 renal = system: RXF 393 renal
M14 melanoma = system: M14 melanoma
MDA-N = system: MDA-N
COLO 205 colon = system: COLO 205 colon
K-562 leukemia = system: K-562 leukemia

O=C1O/C(=C(/Cl)c2c3ccccc3cc3ccccc23)c2ccccc21
TGI (KM12 colon): 17.3 µM
TGI (SF-295 CNS): > 100 µM
TGI (HCC-2998 colon): > 100 µM
TGI (CAKI-1 renal): > 100 µM
TGI (DU-145 prostate): > 100 µM
TGI (NCI-H522 lung): > 100 µM
TGI (OVCAR-5 ovarian): > 100 µM
TGI (SK-MEL-2 melanoma): 51.2 µM
TGI (UACC-257 melanoma): > 100 µM
TGI (A498 renal): 80.2 µM
TGI (HS 578T breast): 59.8 µM
TGI (PC-3 prostate): > 100 µM
TGI (UACC-62 melanoma): > 100 µM
TGI (SF-268 CNS): > 100 µM
TGI (SR leukemia): 35.6 µM
TGI (EKVX NSCLC): > 100 µM
TGI (RPMI-8226 leukemia): 66.4 µM
TGI (HL-60(TB) leukemia): 22.6 µM
TGI (SK-MEL-5 melanoma): 30.7 µM
TGI (MDA-MB-231 breast): 40.3 µM
TGI (SK-OV-3 ovarian): > 100 µM
TGI (SK-MEL-28 melanoma): > 100 µM
TGI (SN12C renal): > 100 µM
TGI (LOX IMVI melanoma): 8.04 µM
TGI (T-47D breast): > 100 µM
TGI (MCF7 breast): > 100 µM
TGI (A549 NSCLC): > 100 µM
TGI (OVCAR-4 ovarian): 90.3 µM
TGI (SW-620 colon): > 100 µM
TGI (OVCAR-3 ovarian): 60.9 µM
TGI (HCT-15 colon): > 100 µM
TGI (CCRF-CEM leukemia): 59.1 µM
TGI (HCT-116 colon): 9.58 µM
TGI (HT29 colon): 43.1 µM
TGI (OVCAR-8 ovarian): 69.9 µM
TGI (TK-10 renal): > 100 µM
TGI (SF-539 CNS): 47.8 µM
TGI (ACHN renal): 82.9 µM
TGI (NCI-H226 lung): 73.6 µM
TGI (SNB-19 CNS): > 100 µM
TGI (MOLT-4 leukemia): > 100 µM
TGI (U251 CNS): > 100 µM
TGI (UO-31 renal): > 100 µM
TGI (SNB-75 CNS): 36.6 µM
TGI (NCI-H460 lung): > 100 µM
TGI (MDA-MB-435): 58 µM
TGI (MALME-3M melanoma): > 100 µM
TGI (HOP-62 NSCLC): 57.8 µM
TGI (786-0 renal): 40.5 µM
TGI (NCI-H23 lung): 79.9 µM
TGI (HOP-92 NSCLC): 50.3 µM
TGI (NCI/ADR-RES ovarian): > 100 µM
TGI (IGROV1 ovarian): 71.2 µM
TGI (RXF 393 renal): 96.4 µM
TGI (M14 melanoma): 53.8 µM
TGI (MDA-N): > 100 µM
TGI (COLO 205 colon): 49.2 µM
TGI (K-562 leukemia): > 100 µM

Cc1ccc2nc(-c3ccc(-c4nc5ccc(C)cc5o4)c(O)c3)oc2c1
TGI (HCC-2998 colon): > 100 µM
TGI (DU-145 prostate): > 100 µM
TGI (OVCAR-5 ovarian): > 100 µM
TGI (SK-MEL-2 melanoma): > 100 µM
TGI (A498 renal): > 100 µM
TGI (HS 578T breast): > 100 µM
TGI (PC-3 prostate): > 100 µM
TGI (UACC-62 melanoma): > 100 µM
TGI (SF-268 CNS): > 100 µM
TGI (SR leukemia): > 100 µM
TGI (RPMI-8226 leukemia): > 100 µM
TGI (HL-60(TB) leukemia): > 100 µM
TGI (SK-MEL-5 melanoma): > 100 µM
TGI (MDA-MB-231 breast): > 100 µM
TGI (SK-OV-3 ovarian): > 100 µM
TGI (SK-MEL-28 melanoma): > 100 µM
TGI (SN12C renal): > 100 µM
TGI (LOX IMVI melanoma): > 100 µM
TGI (T-47D breast): > 100 µM
TGI (MCF7 breast): > 100 µM
TGI (A549 NSCLC): > 100 µM
TGI (SW-620 colon): > 100 µM
TGI (HCT-15 colon): > 100 µM
TGI (CCRF-CEM leukemia): > 100 µM
TGI (HCT-116 colon): > 100 µM
TGI (OVCAR-8 ovarian): > 100 µM
TGI (TK-10 renal): > 100 µM
TGI (SF-539 CNS): > 100 µM
TGI (ACHN renal): > 100 µM
TGI (NCI-H226 lung): > 100 µM
TGI (SNB-19 CNS): > 100 µM
TGI (MOLT-4 leukemia): > 100 µM
TGI (U251 CNS): > 100 µM
TGI (UO-31 renal): > 100 µM
TGI (SNB-75 CNS): > 100 µM
TGI (NCI-H460 lung): > 100 µM
TGI (MDA-MB-435): > 100 µM
TGI (HOP-62 NSCLC): > 100 µM
TGI (786-0 renal): > 100 µM
TGI (NCI-H23 lung): > 100 µM
TGI (HOP-92 NSCLC): > 100 µM
TGI (NCI/ADR-RES ovarian): > 100 µM
TGI (M14 melanoma): > 100 µM
TGI (MDA-N): > 100 µM
TGI (COLO 205 colon): > 100 µM
TGI (K-562 leukemia): > 100 µM
